Conditions: Gas, Buoyancy - hydrostatic balance with magnetic suspension - one sinker

C=C(F)C(F)(F)F [2,3,3,3-tetrafluoro-1-propene]
Conditions	mass density [kg/m3]
252.64 K, 70 kPa	3.88
252.64 K, 110 kPa	6.265
252.64 K, 124 kPa	7.097
262.07 K, 81 kPa	4.341
262.08 K, 113 kPa	6.19
262.08 K, 136 kPa	7.456
262.08 K, 157 kPa	8.696
262.08 K, 169 kPa	9.424
270.18 K, 105 kPa	5.505
270.18 K, 132 kPa	6.952
270.18 K, 172 kPa	9.215
270.18 K, 232 kPa	12.71
270.19 K, 256 kPa	14.125
279.64 K, 75 kPa	3.732
279.65 K, 118 kPa	5.957
279.65 K, 168 kPa	8.6
279.65 K, 219 kPa	11.398
279.66 K, 261 kPa	13.822
279.66 K, 302 kPa	16.231
279.67 K, 352 kPa	19.153
289.17 K, 279 kPa	14.228
289.17 K, 433 kPa	23.141
289.18 K, 186 kPa	9.245
289.18 K, 223 kPa	11.205
289.18 K, 344 kPa	17.869
289.18 K, 502 kPa	27.513
289.19 K, 84 kPa	4.052
289.19 K, 143 kPa	7.017
298.63 K, 249 kPa	12.098
298.63 K, 312 kPa	15.415
298.63 K, 363 kPa	18.154
298.63 K, 419 kPa	21.272
298.63 K, 599 kPa	32.147
298.63 K, 647 kPa	35.336
298.64 K, 134 kPa	6.319
298.64 K, 204 kPa	9.779
308.12 K, 125 kPa	5.711
308.12 K, 242 kPa	11.284
308.13 K, 188 kPa	8.693
308.13 K, 282 kPa	13.311
308.13 K, 367 kPa	17.655
308.13 K, 460 kPa	22.624
308.14 K, 517 kPa	25.797
308.14 K, 551 kPa	27.714
308.14 K, 608 kPa	31.08
308.14 K, 741 kPa	39.419
317.63 K, 418 kPa	19.56
317.63 K, 514 kPa	24.547
317.63 K, 613 kPa	30.022
317.63 K, 892 kPa	46.934
317.64 K, 202 kPa	9.037
317.64 K, 351 kPa	16.204
317.66 K, 116 kPa	5.083
317.66 K, 166 kPa	7.365
327.25 K, 522 kPa	23.936
327.25 K, 597 kPa	27.809
327.25 K, 825 kPa	40.447
327.25 K, 1152 kPa	61.545
327.26 K, 299 kPa	13.167
327.26 K, 372 kPa	16.57
327.26 K, 463 kPa	20.996
327.27 K, 97 kPa	4.113
327.27 K, 153 kPa	6.549
327.27 K, 235 kPa	10.227
336.67 K, 110 kPa	4.549
336.67 K, 321 kPa	13.728
336.67 K, 424 kPa	18.45
336.67 K, 501 kPa	22.051
336.67 K, 618 kPa	27.852
336.67 K, 667 kPa	30.331
336.67 K, 693 kPa	31.586
336.67 K, 873 kPa	41.236
336.67 K, 1254 kPa	64.685
336.67 K, 1683 kPa	100.038
336.68 K, 237 kPa	10.013
345.74 K, 1557 kPa	81.658
345.74 K, 1910 kPa	112.152
345.75 K, 517 kPa	21.914
345.75 K, 739 kPa	32.609
345.75 K, 886 kPa	40.193
345.75 K, 1229 kPa	59.662
345.76 K, 145 kPa	5.863
345.76 K, 305 kPa	12.598

— the NIST ThermoML archive (doi:10.1021/acs.jced.7b00427)
